Source: paper PMC11864979, “First-in-class ultralong-target-residence-time p38α inhibitors as a mitosis-targeted therapy for colorectal cancer” (Nature Cancer, 2025)
Like-named read-outs stand apart in the source and are kept apart here.

Experiments:
Experiment in all cases: selectivity profiling in a panel of 340 wild-type kinases (Reaction Biology Europe)
Format in all cases: binding
340 wild-type kinases [1] = molecular target: T1, 340 wild-type kinases (Homo sapiens, UniProt Q5S007)
T1 construct: purchased Reaction Biology Europe
T1 sequence (Q5S007 whole entry): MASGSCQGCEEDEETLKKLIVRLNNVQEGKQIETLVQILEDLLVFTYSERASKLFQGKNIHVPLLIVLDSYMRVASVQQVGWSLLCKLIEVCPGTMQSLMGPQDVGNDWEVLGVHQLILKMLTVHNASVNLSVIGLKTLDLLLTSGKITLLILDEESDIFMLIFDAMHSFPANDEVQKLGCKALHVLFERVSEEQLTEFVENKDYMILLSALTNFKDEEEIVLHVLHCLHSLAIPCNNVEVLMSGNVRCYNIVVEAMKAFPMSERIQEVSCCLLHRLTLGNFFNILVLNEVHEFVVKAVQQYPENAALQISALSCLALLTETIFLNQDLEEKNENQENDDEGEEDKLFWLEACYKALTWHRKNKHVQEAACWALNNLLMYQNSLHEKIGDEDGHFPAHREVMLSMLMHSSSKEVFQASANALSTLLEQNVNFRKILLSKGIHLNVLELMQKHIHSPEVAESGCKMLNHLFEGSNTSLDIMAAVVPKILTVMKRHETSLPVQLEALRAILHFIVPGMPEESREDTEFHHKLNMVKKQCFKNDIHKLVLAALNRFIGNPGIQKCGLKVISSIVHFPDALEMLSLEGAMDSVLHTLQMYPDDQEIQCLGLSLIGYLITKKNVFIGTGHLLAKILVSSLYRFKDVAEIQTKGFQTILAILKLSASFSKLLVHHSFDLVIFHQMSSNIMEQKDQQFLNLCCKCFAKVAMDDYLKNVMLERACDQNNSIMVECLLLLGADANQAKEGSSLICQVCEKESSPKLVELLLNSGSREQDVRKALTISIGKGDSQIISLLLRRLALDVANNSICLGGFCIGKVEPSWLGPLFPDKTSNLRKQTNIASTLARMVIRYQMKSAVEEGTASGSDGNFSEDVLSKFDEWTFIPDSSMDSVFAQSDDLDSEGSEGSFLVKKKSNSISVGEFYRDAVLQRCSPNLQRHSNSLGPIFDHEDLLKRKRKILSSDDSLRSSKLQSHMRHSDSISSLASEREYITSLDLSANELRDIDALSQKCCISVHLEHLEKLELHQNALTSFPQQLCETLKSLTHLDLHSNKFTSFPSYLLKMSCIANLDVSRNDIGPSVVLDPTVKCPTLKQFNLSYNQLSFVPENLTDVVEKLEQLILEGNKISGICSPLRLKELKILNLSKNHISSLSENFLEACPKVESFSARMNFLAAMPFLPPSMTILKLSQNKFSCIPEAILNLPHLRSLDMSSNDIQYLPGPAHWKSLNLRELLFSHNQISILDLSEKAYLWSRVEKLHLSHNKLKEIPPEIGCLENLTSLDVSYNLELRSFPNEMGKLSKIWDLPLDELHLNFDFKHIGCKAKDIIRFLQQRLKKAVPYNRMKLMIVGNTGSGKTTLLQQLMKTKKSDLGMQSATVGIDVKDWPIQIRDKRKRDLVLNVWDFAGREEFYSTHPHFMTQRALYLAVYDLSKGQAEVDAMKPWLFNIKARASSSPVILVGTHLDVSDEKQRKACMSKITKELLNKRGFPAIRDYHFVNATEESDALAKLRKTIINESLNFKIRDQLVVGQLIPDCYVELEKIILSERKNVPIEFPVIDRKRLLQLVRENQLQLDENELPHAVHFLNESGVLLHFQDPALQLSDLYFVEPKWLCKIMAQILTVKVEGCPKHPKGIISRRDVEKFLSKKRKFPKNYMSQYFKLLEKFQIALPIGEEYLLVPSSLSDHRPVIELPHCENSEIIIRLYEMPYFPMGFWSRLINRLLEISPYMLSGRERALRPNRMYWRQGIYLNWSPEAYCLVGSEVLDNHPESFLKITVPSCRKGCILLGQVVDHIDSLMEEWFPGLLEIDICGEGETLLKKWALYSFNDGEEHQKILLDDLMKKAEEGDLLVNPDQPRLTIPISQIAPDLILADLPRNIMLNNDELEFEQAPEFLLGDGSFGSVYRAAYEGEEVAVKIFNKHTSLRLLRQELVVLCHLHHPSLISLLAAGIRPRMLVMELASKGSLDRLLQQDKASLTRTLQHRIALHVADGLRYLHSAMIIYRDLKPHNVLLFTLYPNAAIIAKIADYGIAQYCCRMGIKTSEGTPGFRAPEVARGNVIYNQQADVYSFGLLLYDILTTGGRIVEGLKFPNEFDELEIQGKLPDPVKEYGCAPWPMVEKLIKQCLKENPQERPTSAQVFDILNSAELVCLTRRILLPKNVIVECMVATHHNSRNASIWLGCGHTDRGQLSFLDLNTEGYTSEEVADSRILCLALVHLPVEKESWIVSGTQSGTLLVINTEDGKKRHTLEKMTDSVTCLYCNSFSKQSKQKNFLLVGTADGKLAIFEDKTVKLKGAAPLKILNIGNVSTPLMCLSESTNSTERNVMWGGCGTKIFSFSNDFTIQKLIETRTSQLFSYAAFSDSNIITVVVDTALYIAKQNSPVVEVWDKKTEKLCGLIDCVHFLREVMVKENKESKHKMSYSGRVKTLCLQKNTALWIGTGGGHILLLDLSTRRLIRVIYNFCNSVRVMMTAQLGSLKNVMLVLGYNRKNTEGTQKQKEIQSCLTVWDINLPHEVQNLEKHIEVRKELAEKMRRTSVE

340 wild-type kinases [2] = molecular target: T2, 340 wild-type kinases (Homo sapiens, UniProt P43405)
T2 construct: purchased Reaction Biology Europe

340 wild-type kinases [3] = molecular target: T3, 340 wild-type kinases (Homo sapiens, UniProt P50750)
T3 construct: purchased Reaction Biology Europe
T3 sequence (P50750 whole entry): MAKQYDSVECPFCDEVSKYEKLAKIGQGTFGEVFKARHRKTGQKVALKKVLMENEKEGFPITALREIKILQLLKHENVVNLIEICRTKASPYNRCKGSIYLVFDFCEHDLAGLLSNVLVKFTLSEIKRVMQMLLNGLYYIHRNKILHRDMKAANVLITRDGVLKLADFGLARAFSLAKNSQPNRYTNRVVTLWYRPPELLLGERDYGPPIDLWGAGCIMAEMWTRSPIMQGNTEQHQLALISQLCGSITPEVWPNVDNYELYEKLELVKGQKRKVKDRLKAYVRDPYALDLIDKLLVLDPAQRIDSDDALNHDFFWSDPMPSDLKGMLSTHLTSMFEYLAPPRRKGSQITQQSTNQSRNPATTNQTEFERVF

340 wild-type kinases [4] = molecular target: T4, 340 wild-type kinases (Homo sapiens, UniProt P04626)
T4 construct: purchased Reaction Biology Europe

340 wild-type kinases [5] = molecular target: T5, 340 wild-type kinases (Homo sapiens, UniProt Q9NZJ5)
T5 construct: purchased Reaction Biology Europe
T5 sequence (Q9NZJ5 30-1116): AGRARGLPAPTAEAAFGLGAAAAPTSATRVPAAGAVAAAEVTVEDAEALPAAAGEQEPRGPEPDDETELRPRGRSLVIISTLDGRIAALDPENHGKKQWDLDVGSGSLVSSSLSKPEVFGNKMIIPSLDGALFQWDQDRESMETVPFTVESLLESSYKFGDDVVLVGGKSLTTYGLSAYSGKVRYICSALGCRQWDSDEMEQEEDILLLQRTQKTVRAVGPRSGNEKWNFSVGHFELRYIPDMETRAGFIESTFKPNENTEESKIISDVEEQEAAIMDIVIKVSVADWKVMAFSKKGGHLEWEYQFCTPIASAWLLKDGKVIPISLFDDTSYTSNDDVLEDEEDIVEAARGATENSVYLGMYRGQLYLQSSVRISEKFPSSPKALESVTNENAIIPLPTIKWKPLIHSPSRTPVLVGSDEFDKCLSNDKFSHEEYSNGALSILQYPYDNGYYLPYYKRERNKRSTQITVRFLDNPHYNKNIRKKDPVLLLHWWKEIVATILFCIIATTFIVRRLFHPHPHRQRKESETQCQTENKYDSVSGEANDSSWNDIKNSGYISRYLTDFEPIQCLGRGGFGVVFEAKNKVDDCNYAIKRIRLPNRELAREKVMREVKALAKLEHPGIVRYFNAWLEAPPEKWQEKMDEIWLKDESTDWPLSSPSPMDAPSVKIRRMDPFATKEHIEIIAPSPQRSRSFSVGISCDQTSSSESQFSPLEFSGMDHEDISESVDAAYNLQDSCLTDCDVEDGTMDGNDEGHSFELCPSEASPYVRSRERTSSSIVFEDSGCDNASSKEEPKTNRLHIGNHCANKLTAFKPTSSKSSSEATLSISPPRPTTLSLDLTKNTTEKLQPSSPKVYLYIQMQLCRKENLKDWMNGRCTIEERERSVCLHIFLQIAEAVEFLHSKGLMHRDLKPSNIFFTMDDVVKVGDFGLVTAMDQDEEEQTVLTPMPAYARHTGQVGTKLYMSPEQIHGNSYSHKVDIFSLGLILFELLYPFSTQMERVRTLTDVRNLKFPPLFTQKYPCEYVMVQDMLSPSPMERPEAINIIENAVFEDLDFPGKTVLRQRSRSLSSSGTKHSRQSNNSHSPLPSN

340 wild-type kinases [6] = molecular target: T6, 340 wild-type kinases (Homo sapiens, UniProt Q9Y463)
T6 construct: purchased Reaction Biology Europe
T6 sequence (Q9Y463 whole entry): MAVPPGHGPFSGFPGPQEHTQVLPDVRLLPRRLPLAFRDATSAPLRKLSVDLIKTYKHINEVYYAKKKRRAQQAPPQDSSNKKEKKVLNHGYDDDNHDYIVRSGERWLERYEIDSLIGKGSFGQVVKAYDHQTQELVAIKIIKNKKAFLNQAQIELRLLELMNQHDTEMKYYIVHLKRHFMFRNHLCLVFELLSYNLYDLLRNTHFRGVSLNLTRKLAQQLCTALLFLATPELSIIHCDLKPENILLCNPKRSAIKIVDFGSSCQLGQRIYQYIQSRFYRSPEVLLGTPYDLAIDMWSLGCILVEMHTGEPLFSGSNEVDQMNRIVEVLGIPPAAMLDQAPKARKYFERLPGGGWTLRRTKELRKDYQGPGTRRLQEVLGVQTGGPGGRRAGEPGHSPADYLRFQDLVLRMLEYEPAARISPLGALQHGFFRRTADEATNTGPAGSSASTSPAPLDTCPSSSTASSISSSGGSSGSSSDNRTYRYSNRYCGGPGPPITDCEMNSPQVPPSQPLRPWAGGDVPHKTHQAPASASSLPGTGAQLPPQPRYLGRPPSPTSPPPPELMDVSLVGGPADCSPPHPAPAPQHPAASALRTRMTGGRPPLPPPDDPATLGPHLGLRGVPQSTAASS

340 wild-type kinases [7] = molecular target: T7, 340 wild-type kinases (Homo sapiens, UniProt Q15418)
T7 construct: purchased Reaction Biology Europe
T7 sequence (Q15418 whole entry): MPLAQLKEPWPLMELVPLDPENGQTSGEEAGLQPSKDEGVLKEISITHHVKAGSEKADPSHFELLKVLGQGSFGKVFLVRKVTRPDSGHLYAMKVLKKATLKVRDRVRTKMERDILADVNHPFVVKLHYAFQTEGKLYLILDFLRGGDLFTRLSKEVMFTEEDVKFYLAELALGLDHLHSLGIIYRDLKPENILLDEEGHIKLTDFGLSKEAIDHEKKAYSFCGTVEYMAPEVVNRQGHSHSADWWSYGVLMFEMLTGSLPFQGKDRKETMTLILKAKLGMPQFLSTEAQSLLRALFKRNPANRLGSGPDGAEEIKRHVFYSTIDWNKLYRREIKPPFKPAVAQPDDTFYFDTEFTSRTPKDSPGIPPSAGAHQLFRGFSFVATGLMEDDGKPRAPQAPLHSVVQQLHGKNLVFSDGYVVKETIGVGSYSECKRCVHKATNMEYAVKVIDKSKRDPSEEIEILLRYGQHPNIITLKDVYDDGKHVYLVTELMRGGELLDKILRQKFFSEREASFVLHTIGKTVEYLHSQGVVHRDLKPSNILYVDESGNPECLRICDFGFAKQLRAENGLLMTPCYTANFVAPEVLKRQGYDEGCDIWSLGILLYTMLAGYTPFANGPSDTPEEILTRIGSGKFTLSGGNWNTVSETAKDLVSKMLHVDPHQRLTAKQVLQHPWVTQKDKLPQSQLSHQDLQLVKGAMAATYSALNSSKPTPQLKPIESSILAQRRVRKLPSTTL

340 wild-type kinases [8] = molecular target: T8, 340 wild-type kinases (Homo sapiens, UniProt P06493)
T8 construct: purchased Reaction Biology Europe
T8 sequence (P06493 whole entry): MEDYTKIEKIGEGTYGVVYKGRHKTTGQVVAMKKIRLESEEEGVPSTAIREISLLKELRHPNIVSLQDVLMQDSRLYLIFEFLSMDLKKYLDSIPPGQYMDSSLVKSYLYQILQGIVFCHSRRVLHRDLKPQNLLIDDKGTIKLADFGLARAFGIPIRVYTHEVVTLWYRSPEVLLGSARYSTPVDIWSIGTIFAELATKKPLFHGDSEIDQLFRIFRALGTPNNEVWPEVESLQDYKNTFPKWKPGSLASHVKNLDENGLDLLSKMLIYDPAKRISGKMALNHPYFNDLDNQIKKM

340 wild-type kinases [9] = molecular target: T9, 340 wild-type kinases (Homo sapiens, UniProt P42681)
T9 construct: purchased Reaction Biology Europe
T9 sequence (P42681 1-527): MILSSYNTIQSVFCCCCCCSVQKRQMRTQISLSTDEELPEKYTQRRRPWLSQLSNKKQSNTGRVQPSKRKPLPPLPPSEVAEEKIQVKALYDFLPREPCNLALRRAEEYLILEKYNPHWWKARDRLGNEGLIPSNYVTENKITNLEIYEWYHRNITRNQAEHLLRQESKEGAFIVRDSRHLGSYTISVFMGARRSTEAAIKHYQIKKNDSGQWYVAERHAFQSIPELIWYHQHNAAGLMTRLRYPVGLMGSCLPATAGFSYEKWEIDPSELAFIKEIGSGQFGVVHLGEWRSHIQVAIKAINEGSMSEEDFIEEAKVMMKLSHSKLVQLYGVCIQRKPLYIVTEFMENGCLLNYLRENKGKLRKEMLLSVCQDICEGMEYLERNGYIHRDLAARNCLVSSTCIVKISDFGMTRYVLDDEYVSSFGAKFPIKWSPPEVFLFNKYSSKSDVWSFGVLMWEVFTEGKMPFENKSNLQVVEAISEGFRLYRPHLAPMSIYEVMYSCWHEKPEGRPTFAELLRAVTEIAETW

CNC(=O)c1ccc2c(c1)C(=O)c1ccc(Nc3ccc(F)c(NC(=O)C4CC4)c3)cc1CC2 [Compound 2015]
remaining activity at 0.2 µM (340 wild-type kinases [1]; 0.2 µM 2015, read-out: LRRK2 residual activity): 98.2% | remaining activity at 1 µM (340 wild-type kinases [1]; 1 µM 2015, read-out: LRRK2 residual activity): 93.8% | remaining activity at 0.2 µM (340 wild-type kinases [1]; LRRK2, 0.2 µM, read-out: residual activity): 98.2% | remaining activity at 1 µM (340 wild-type kinases [1]; LRRK2, 1 µM, read-out: residual activity): 93.8% | remaining activity at 0.2 µM (340 wild-type kinases [2]; 0.2 µM 2015, read-out: SYK residual activity): 95.8% | remaining activity at 1 µM (340 wild-type kinases [2]; 1 µM 2015, read-out: SYK residual activity): 85.6% | remaining activity at 0.2 µM (340 wild-type kinases [2]; SYK, 0.2 µM, read-out: residual activity): 95.8% | remaining activity at 1 µM (340 wild-type kinases [2]; SYK, 1 µM, read-out: residual activity): 85.6% | remaining activity at 0.2 µM (340 wild-type kinases [3]; 0.2 µM 2015, read-out: CDK9/CycK residual activity): 94.2% | remaining activity at 0.2 µM (340 wild-type kinases [3]; 0.2 µM 2015, read-out: CDK9/CycT1 residual activity): 107% | remaining activity at 1 µM (340 wild-type kinases [3]; 1 µM 2015, read-out: CDK9/CycK residual activity): 95.1% | remaining activity at 1 µM (340 wild-type kinases [3]; 1 µM 2015, read-out: CDK9/CycT1 residual activity): 94% | remaining activity at 0.2 µM (340 wild-type kinases [3]; CDK9/CycK, 0.2 µM, read-out: residual activity): 94.2% | remaining activity at 1 µM (340 wild-type kinases [3]; CDK9/CycK, 1 µM, read-out: residual activity): 95.2% | remaining activity at 0.2 µM (340 wild-type kinases [3]; CDK9/CycT1, 0.2 µM, read-out: residual activity): 107% | remaining activity at 1 µM (340 wild-type kinases [3]; CDK9/CycT1, 1 µM, read-out: residual activity): 94% | remaining activity at 0.2 µM (340 wild-type kinases [4]; 0.2 µM 2015, read-out: ERBB2 residual activity): 105% | remaining activity at 1 µM (340 wild-type kinases [4]; 1 µM 2015, read-out: ERBB2 residual activity): 102% | remaining activity at 0.2 µM (340 wild-type kinases [4]; ERBB2, 0.2 µM, read-out: residual activity): 105% | remaining activity at 1 µM (340 wild-type kinases [4]; ERBB2, 1 µM, read-out: residual activity): 102% | remaining activity at 1 µM (340 wild-type kinases [5]; 1 µM 2015, read-out: EIF2AK3 residual activity): 86.3% | remaining activity at 0.2 µM (340 wild-type kinases [5]; EIF2AK3, 0.2 µM, read-out: residual activity): 93.3% | remaining activity at 1 µM (340 wild-type kinases [5]; EIF2AK3, 1 µM, read-out: residual activity): 86.3% | remaining activity at 0.2 µM (340 wild-type kinases [6]; 0.2 µM 2015, read-out: DYRK1B residual activity): 96.9% | remaining activity at 1 µM (340 wild-type kinases [6]; 1 µM 2015, read-out: DYRK1B residual activity): 94.1% | remaining activity at 0.2 µM (340 wild-type kinases [6]; DYRK1B, 0.2 µM, read-out: residual activity): 96.9% | remaining activity at 1 µM (340 wild-type kinases [6]; DYRK1B, 1 µM, read-out: residual activity): 94.1% | remaining activity at 0.2 µM (340 wild-type kinases [7]; 0.2 µM 2015, read-out: RPS6KA1 residual activity): 100% | remaining activity at 1 µM (340 wild-type kinases [7]; 1 µM 2015, read-out: RPS6KA1 residual activity): 94.3% | remaining activity at 0.2 µM (340 wild-type kinases [7]; RPS6KA1, 0.2 µM, read-out: residual activity): 100% | remaining activity at 1 µM (340 wild-type kinases [7]; RPS6KA1, 1 µM, read-out: residual activity): 94.3% | remaining activity at 0.2 µM (340 wild-type kinases [8]; 0.2 µM 2015, read-out: CDK1/CycA2 residual activity): 99.4% | remaining activity at 0.2 µM (340 wild-type kinases [8]; 0.2 µM 2015, read-out: CDK1/CycB1 residual activity): 92.8% | remaining activity at 0.2 µM (340 wild-type kinases [8]; 0.2 µM 2015, read-out: CDK1/CycE1 residual activity): 100% | remaining activity at 1 µM (340 wild-type kinases [8]; 1 µM 2015, read-out: CDK1/CycA2 residual activity): 101% | remaining activity at 1 µM (340 wild-type kinases [8]; 1 µM 2015, read-out: CDK1/CycB1 residual activity): 83.7% | remaining activity at 1 µM (340 wild-type kinases [8]; 1 µM 2015, read-out: CDK1/CycE1 residual activity): 90.1% | remaining activity at 0.2 µM (340 wild-type kinases [8]; CDK1/CycA2, 0.2 µM, read-out: residual activity): 99.3% | remaining activity at 1 µM (340 wild-type kinases [8]; CDK1/CycA2, 1 µM, read-out: residual activity): 101% | remaining activity at 0.2 µM (340 wild-type kinases [8]; CDK1/CycB1, 0.2 µM, read-out: residual activity): 92.8% | remaining activity at 1 µM (340 wild-type kinases [8]; CDK1/CycB1, 1 µM, read-out: residual activity): 83.7% | remaining activity at 0.2 µM (340 wild-type kinases [8]; CDK1/CycE1, 0.2 µM, read-out: residual activity): 100% | remaining activity at 1 µM (340 wild-type kinases [8]; CDK1/CycE1, 1 µM, read-out: residual activity): 90.1% | remaining activity at 0.2 µM (340 wild-type kinases [9]; 0.2 µM 2015, read-out: TXK residual activity): 94.2% | remaining activity at 1 µM (340 wild-type kinases [9]; 1 µM 2015, read-out: TXK residual activity): 90% | remaining activity at 0.2 µM (340 wild-type kinases [9]; TXK, 0.2 µM, read-out: residual activity): 94.2% | remaining activity at 1 µM (340 wild-type kinases [9]; TXK, 1 µM, read-out: residual activity): 90%
